Entries after “also recorded” stand apart in the source; their conditions may differ.
Columns and labels:
cyclin D1 = assay: Clinical tumor biopsies, cyclin D1 by quantitative IHC
Excerpt: All subjects provided written informed consent.
“Cyclin D1” refers to total cyclin D1 present as measured by immunohistochemistry and reported by OD;

S1 cells = assay: Cell cycle analysis (propidium iodide, flow cytometry), apoptosis of S1 cells; details: 5 μM, 72 h
Method: The percentage of cells in G1, S phase, and G2/M are indicated. The sub-G1 peak represents the apoptotic fraction.
Cells were harvested and fixed with 70% ethanol in PBS. Cell pellets were then resuspended in 0.5 ml PBS containing propidium iodide (50 μg/ml) and DNase-free RNase (100 μg/ml). Cell cycle analysis was performed using a BD Flow Cytometer (Becton Dickinson, San Jose, Calif., USA).
After 72 h, cell cycle analysis was performed using propidium iodide staining and flow cytometry as described in Materials and methods.

erbB2 = erbB2 (Homo sapiens, UniProt P04626); assay: IP Western/Western blot of p-Tyr/erbB2 and total erbB2 in Hb4a cells; format: cell-based; design: endogenous in cells; host or cells: Hb4a; details: 5 μM, 72 h, not reversed by EGF
erbB2, sequence (P04626 23-1255): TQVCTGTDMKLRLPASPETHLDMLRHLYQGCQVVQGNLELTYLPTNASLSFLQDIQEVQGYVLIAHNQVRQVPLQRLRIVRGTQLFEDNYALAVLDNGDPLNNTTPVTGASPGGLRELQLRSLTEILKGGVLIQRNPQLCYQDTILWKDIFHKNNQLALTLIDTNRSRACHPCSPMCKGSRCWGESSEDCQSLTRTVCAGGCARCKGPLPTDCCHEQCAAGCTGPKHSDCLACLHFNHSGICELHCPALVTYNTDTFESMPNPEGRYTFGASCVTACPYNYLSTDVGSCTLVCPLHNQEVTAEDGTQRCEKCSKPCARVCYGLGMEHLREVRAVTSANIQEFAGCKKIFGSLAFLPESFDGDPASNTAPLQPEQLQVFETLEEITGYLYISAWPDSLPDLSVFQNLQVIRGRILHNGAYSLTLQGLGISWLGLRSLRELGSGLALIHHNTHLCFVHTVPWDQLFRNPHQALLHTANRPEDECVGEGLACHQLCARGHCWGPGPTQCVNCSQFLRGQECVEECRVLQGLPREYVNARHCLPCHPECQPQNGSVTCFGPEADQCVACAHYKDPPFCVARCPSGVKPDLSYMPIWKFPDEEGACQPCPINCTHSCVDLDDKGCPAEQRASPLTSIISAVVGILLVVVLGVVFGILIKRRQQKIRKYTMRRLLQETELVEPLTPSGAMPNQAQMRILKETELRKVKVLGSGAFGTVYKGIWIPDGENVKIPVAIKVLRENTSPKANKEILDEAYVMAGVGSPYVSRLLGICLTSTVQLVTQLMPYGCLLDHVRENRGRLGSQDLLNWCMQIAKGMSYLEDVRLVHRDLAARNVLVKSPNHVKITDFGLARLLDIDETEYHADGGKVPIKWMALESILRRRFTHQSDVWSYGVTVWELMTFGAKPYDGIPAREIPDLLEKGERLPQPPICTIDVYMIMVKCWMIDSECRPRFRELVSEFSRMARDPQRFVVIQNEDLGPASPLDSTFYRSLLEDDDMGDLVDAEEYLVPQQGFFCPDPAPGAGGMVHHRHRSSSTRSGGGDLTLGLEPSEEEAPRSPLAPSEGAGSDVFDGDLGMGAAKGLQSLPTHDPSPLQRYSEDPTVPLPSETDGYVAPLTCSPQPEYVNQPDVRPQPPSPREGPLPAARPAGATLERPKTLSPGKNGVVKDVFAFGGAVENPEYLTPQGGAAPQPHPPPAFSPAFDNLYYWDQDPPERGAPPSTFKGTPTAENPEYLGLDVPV
Method: (§1) The EGFR overexpressing LICR-LON-HN5 head and neck carcinoma cell line, HN5, was kindly provided by Helmout Modjtahedi at the Institute of Cancer Research, Surrey, U.K.
Protein concentrations were determined using a modification of the Bradford method (Bio-Rad Laboratory).
For IP Western blots, equivalent amounts of protein were precleared with Protein G Plus/Protein A agarose overnight at 4° C. Precleared lysates were then incubated overnight at 4° C. with specific antibodies. Immune complexes were precipitated with Protein G Plus/Protein A agarose beads, washed in RIPA buffer and then boiled in sample loading buffer. Steady state levels of total Erk1/2 and activated Erk1/2 (p-Erk) as well as total AKT protein and activated AKT (p-AKT) protein were assessed by Western blot. […] Proteins were transferred to Immobilon-P or nitrocellulose membranes. Efficiency and equal loading of proteins was evaluated by Ponceau S staining. Membranes were blocked for 1 hr in TBS (25 mM Tris-HCl, pH 7.4, 150 mM NaCl, 2.7 mM KCl) containing 4% (w/v) lowfat milk or 3% BSA (w/v). Membranes were then probed with specific antibodies recognizing target proteins. […]
(§2) Steady state levels of activated erbB2 and EGFR (p-Tyr/ErbB2 and p-Tyr/EGFR); total erbB2 and EGFR; activated Erk1/2 (p-Erk1/2) and total Erk1/2 were assessed by either IP Western or Western blot.

Erk1/2 [1] = assay: Western blot of p-Erk1/2 in Hb4a cells; format: cell-based, human; details: 5 μM, 72 h, not reversed by EGF
Method: as §1
(§3) For IP Western blots, equivalent amounts of protein were precleared with Protein G Plus/Protein A agarose overnight at 4° C. Precleared lysates were then incubated overnight at 4° C. with specific antibodies. Immune complexes were precipitated with Protein G Plus/Protein A agarose beads, washed in RIPA buffer and then boiled in sample loading buffer. Steady state levels of total Erk1/2 and activated Erk1/2 (p-Erk) as well as total AKT protein and activated AKT (p-AKT) protein were assessed by Western blot. […] Proteins were transferred to Immobilon-P or nitrocellulose membranes. Efficiency and equal loading of proteins was evaluated by Ponceau S staining. Membranes were blocked for 1 hr in TBS (25 mM Tris-HCl, pH 7.4, 150 mM NaCl, 2.7 mM KCl) containing 4% (w/v) lowfat milk or 3% BSA (w/v). Membranes were then probed with specific antibodies recognizing target proteins. Proteins were visualized with the SUPERSIGNAL® West Femto Maximum sensitivity substrate kit (Pierce).
as §2

Hb4a cells = assay: Hb4a cell growth, viable cell count by trypan blue exclusion; format: cell-based; details: Homo sapiens, 72 h, serum-free, three independent experiments, read-out: inhibition of cell growth compared with vehicle treated controls
Method: Exponentially growing Hb4a cells were cultured in 35 mm petri dishes with serum-free medium containing 1.5% BSA. […] Viable cells were counted after 72 h using trypan blue exclusion.

Erk1/2 [2] = assay: Clinical tumor biopsies, localization of total Erk1/2 by IHC; format: in vivo, human; details: patient 361, Day 21; baseline exclusively intra-nuclear; data not shown
Excerpt: Upon activation, p-Erk1/2 relocates to the nucleus where it regulates transcription of a variety of genes involved in tumor growth, adhesion, and angiogenesis.

pAKT [3] = assay: Clinical tumor biopsies, p-AKT by quantitative IHC
Excerpt: DAB (Dako) was used as the chromogen.
“pAKT” refers to phosphorylated AKT as measured by immunohistochemistry and reported in OD;

AKT [4] = assay: Western blot of p-AKT in HN5 cells; format: cell-based, human; details: HN5, 5 μM, 24 h serum-free
Method: as §1, with “The erbB2 overexpressing human breast adenocarcinoma cell line, BT474, was obtained from the American Type Culture Collection (Rockville, M, USA). […] The” for “The”
as §3

Erk1/2 [5] = assay: BT474 tumor xenograft, p-Erk1/2 and total Erk1/2 by Western blot; format: in vivo, C.B-17 SCID mice
Method: (§4) The tumor implant was removed after the final treatment dose. Activated receptor (p-Tyr/ErbB-2) was assessed by IP Western blot and total ErbB-2 steady state protein (ErbB-2), total Erk1/2 and activated Erk1/2 (p-Erk1/2) were assessed by Western blot loading equal amounts of protein from tumor biopsies.
Cell extracts were prepared by homogenization as described for HN5 xenografts.
as §4, with “BT474” for “The”, “xenografts (subcutaneous) were established as described in Materials and Methods. […] Controls were treated with vehicle alone. […]” for “implant was removed after the final treatment dose.”

AKT [6] = assay: Western blot of p-AKT in BT474 cells; format: cell-based, human; details: BT474, 1 μM, 24 h serum-free; not reversed by EGF
Method: as §1, with “The erbB2 overexpressing human breast adenocarcinoma cell line, BT474, was obtained from the American Type Culture Collection (Rockville, M, USA). […] The” for “The”
as §3
BT474 is an erbB2 overexpressing breast carcinoma line that also expresses EGFR, albeit at lower levels. […]

pAKT [7] = assay: Confocal microscopy of AU-565 cells exposed to epigen; format: cell-based, human; details: epigen and GW572016, confocal microscopy, results not shown
Excerpt: In response to NDF (Neu Differentiating Factor or Heregulin), these cells divide and multiply. AU565 cells were stained with antibodies to show total ERK, or stained with antibodies to show phosphorylated ERK (p-Erk).

Erk1/2 [8] = assay: Western blot of activated Erk1/2 (p-Erk1/2) in S1 cells; format: cell-based, human; details: 72 h
Excerpt: Proteins were transferred to Immobilon-P or nitrocellulose membranes.
ErbB2 overexpression is associated with the activation of downstream pathways involved in the propagation of proliferative signals such as Erk1/2 MAP kinases (Janes et al., Oncogene, 9:3601(1994)). […].

CS(=O)(=O)CCNCc1ccc(-c2ccc3ncnc(Nc4ccc(OCc5cccc(F)c5)c(Cl)c4)c3c2)o1 [GW572016, N-{3-Chloro-4-[(3-fluorobenzyl)oxy]phenyl}-6-[5-({[2-(methylsulfonyl)ethyl]amino}methyl)-2-furyl]-4-quinazolinamine]
reduction of cyclin D1 protein expression (cyclin D1; patient 361, 1200 mg/day, d 21): 90%
cyclin D1 OD (cyclin D1; patient 361, breast, 1200 mg/d, day 21 (day 0: 31)): 3 OD
cyclin D1 OD (cyclin D1; patient 362, adenocarcinoma unknown primary, 900 mg/d, day 21 (day 0: 26)): 37 OD
cyclin D1 OD (cyclin D1; patient 363, sarcoma, 500 mg/d, day 21 (day 0: 1)): 12 OD
reduction of cyclin D1 expression (cyclin D1; patient 364, 1600 mg/day, 21 days of therapy): 50%
cyclin D1 OD (cyclin D1; patient 364, head & neck, 1600 mg/d, day 21 (day 0: 66)): 33 OD
cyclin D1 OD (cyclin D1; patient 367, adenocarcinoma unknown primary, 650 mg/d, day 21 (day 0: 46)): 39 OD
cyclin D1 OD (cyclin D1; patient 369, head & neck, 1200 mg/d, day 21 (day 0: 39)): 22 OD
cyclin D1 OD (cyclin D1; patient 371, breast, 900 mg/d, day 21 (day 0: 42)): 10 OD
cyclin D1 OD (cyclin D1; patient 372, breast, 1200 mg/d, day 21 (day 0: 20)): 4 OD
Cyclin D1 (cyclin D1; patient 425, inflammatory breast cancer, 1200 mg/d ditosylate salt, day 21 (day 0: 19)): 12 OD
increase in percentage of apoptotic cells vs vehicle (S1 cells): 23 fold
percentage of cells in S phase and G2/M (S1 cells): concomitant reduction
percentage of apoptotic cells (sub-G1 peak) (S1 cells; vehicle control 2%): 46%
baseline amount of p-Tyr/erbB2 (erbB2): reduced; also recorded: decreased
baseline amount of p-Erk (Erk1/2 [1]): reduced; also recorded: decreased
inhibition at 2.5 µM (Hb4a cells): 50%
localization of total Erk1/2 staining (Erk1/2 [2]): almost entirely cytoplasmic
p-AKT OD (pAKT [3]; patient 361, breast, 1200 mg/d, day 21 (day 0: 36)): 24 OD
p-AKT OD (pAKT [3]; patient 362, adenocarcinoma unknown primary, 900 mg/d, day 21 (day 0: 61)): 81 OD
p-AKT OD (pAKT [3]; patient 363, sarcoma, 500 mg/d, day 21 (day 0: 19)): 32 OD
reduction of p-AKT (pAKT [3]; patient 364, 1600 mg/day, Day 21): 16%
p-AKT OD (pAKT [3]; patient 364, head & neck, 1600 mg/d, day 21 (day 0: 51)): 43 OD
p-AKT OD (pAKT [3]; patient 366, ovarian, 900 mg/d, day 21 (day 0: 22), aberrant staining, not considered valid): 47 OD
p-AKT OD (pAKT [3]; patient 367, adenocarcinoma unknown primary, 650 mg/d, day 21 (day 0: 35)): 25 OD
p-AKT OD (pAKT [3]; patient 369, head & neck, 1200 mg/d, day 21 (day 0: 24)): 7 OD
p-AKT OD (pAKT [3]; patient 371, breast, 900 mg/d, day 21 (day 0: 36)): 33 OD
p-AKT OD (pAKT [3]; patient 372, breast, 1200 mg/d, day 21 (day 0: 48)): 30 OD
pAKT (pAKT [3]; patient 425, inflammatory breast cancer, 1200 mg/d ditosylate salt, day 21 (day 0: 85)): 26 OD
intensity of pAkt staining, particularly in the nuclei (pAKT [3]; patient 425, post-treatment tumor sample, IHC, results not shown): greatly reduced
p-AKT (AKT [4]): inhibited p-AKT in HN5 cells, the effect was smaller than in erbB2-overexpressing tumor cells
total Erk1/2 steady state protein levels (Erk1/2 [5]; 100 mg/kg): without effects
p-Erk1/2 (Erk1/2 [5]; 100 mg/kg oral twice daily, five doses): inhibited; also recorded: decreased
p-AKT (AKT [6]): completely inhibited
p-erk in the nuclei vs cells treated with epigen alone (pAKT [7]): comparatively less
total steady state Erk protein (Erk1/2 [8]; 0.5-5 μM): remained unchanged
inhibition at 0.5 µM (Erk1/2 [8]; Homo sapiens, 500 nM, vs vehicle, read-out: inhibition of activated, phosphorylated Erk1/2 (p-Erk)): > 50%
inhibition at 2.5 µM (Erk1/2 [8]; Homo sapiens, 2.5 μM, vs vehicle, read-out: inhibition of activated, phosphorylated Erk1/2 (p-Erk)): > 50%
inhibition at 5 µM (Erk1/2 [8]; Homo sapiens, 5 μM, vs vehicle, read-out: inhibition of activated, phosphorylated Erk1/2 (p-Erk)): 100%

From US20070059785A1, “Biomarkers in cancer” (SMITHKLINE BEECHAM CORPORATION, priority 2003, published 2007)
